Our source for the EC50 values is patent US10562869B2, “Oxadiazole compounds” (REMYND NV, priority 2014, dated 2020).

The subject of this assay is M17_3TAU(P301L) cells. Kind of assay: Retinoic acid-induced cytotoxicity (LDH) in TAU-P301L expressing M17_3TAU(P301L) neuroblastoma cells. The class given is cell-based. Conditions: Homo sapiens, Neuroblastoma cell, 168 h; toxicity inhibition (LDH) in M17_3TAU(P301L) cells challenged with retinoic acid, 7 days. The source says:
A TAU expression plasmid was constructed by sub-cloning the cDNA encoding for human TAU-P301L protein, wherein proline at position 301 was substituted by a leucine residue, into mammalian expression vector pcDNA3.1 resulting in the plasmid pcDNA3.1-TAUP301L. Plasmid pcDNA3.1-TAU P301L was transfected into human neuroblastoma cells (BE-M17; ATCC No. CRL-2267™) using lipofectamine reagent and subsequently, independent clonal cell lines with the plasmids stably integrated into the genome were selected by antibiotic resistance selection (Geneticin (G418)), resulting in cell line M17_3TAUP301L. Expression of the TAUP301L gene in the M17_3TAUP301L cells was confirmed by Western blot analysis.
M17_3TAU(P301L) cells were treated chronically with retinoic acid (RA) in low serum conditions to induce Alzheimer's disease-like intracellular signaling deregulation leading to increased TAU levels and subsequent cell death. Cytotoxicity of cells was measured by quantification of lactate dehydrogenase (LDH) levels. In dead cells LDH leaked out of the cells into the medium due to a loss of plasma-membrane integrity.
3 days preceding the experiment, a pre-culture of M17_3TAU(P301L) cells was prepared, starting from a stock culture, at a density of 50.000-100.000 cells/cm^2 in culture medium (Optimem Reduced Serum with phenol red (Invitrogen, Cat. 31985-047)) supplemented with 10% fetal calf serum (FCS), 1 mM sodium pyruvate, 1×non-essential amino acids (NEAA), 500 μg/ml G418 and 0.5×(ABAM). At the day of the experiment these precultures were diluted to ˜0.1·10^6 cells/ml in detection medium (Optimem Reduced Serum without phenol red (Gibco, Cat.11058-021) supplemented with 1% fetal calf serum (FCS), 1 mM sodium pyruvate, 1×non-essential amino acids (NEAA), 500 μg/ml G418 and 0.5×ABAM) and 60 μL of this suspension was dispensed per well into a 96-well microtiter plate. After 3 hours of incubation at 37° C./5% CO2 an equal volume of detection medium (without FCS) containing 3.75 μM RA was added and subsequently incubated for 7 days at 37° C./5% CO2. Then LDH activity was determined using the Promega Cytotox 96 Non-Radioactive cytotoxicity assay (Cat. G1780), according to the manufacturer's instructions. Cytotoxicity was defined as the ratio of LDH relative the total LDH in the cells and supernatant.
The assay described above using the M17_3TAU(P301L) cell line allowed to screen compounds for their ability to decrease cytotoxicity in RA-challenged cells. Compounds of the invention were tested for their ability to decrease toxicity at different concentrations, ranging from low non-effective concentrations to high potent concentrations. Afterwards, the dose-dependent inhibition curve was used to calculate their EC50. A compound was considered to be active in this test when it inhibited toxicity by more than 20% relative to untreated M17_3TAU(P301L) cells at a concentration of 10 μM or lower.

In the case of `COc1cccc(CCN2CCN(c3nc(C4(c5ccc(F)cc5)CC4)no3)CC2)c1` [Cmpd109, 3-(1-(4-Fluorophenyl)cyclopropyl)-5-(4-(3-methoxyphenethyl)piperazin-1-yl)-1,2,4-oxadiazole], the midpoint of the response, the EC50, lay at 487 nM.
`COc1cc(CCN2CCN(c3nc(-c4cccc(F)c4)no3)CC2)ccn1` [Cmpd032, 3-(3-Fluorophenyl)-5-(4-(2-(2-methoxypyridin-4-yl)ethyl)piperazin-1-yl)-1,2,4-oxadiazole] returned an EC50 of 8 nM.
The figure for `Cc1ccc(CN2CCN(c3nc(C4(c5ccccc5)CC4)no3)CC2)cc1` [Cmpd130, 5-(4-(4-Methylbenzyl)piperazin-1-yl)-3-(1-phenylcyclopropyl)-1,2,4-oxadiazole] is 185 nM.
Turning to `Fc1ccc(C(F)(F)c2noc(N3CCN(Cc4ccc5c(c4)OCO5)CC3)n2)cc1` [Cmpd149, 5-(4-(Benzo[d][1,3]dioxol-5-ylmethyl)piperazin-1-yl)-3-(difluoro(4-fluorophenyl)methyl)-1,2,4-oxadiazole], the EC50 stood at 849 nM.
The figure for `COc1cccc(CCN2CCN(c3nc(C(F)(F)c4ccc(F)cc4)no3)CC2)c1` [Cmpd150, 3-(Difluoro(4-fluorophenyl)methyl)-5-(4-(3-methoxyphenethyl)piperazin-1-yl)-1,2,4-oxadiazole] is 199 nM; for `FC1(F)Oc2ccc(CN3CCN(c4nc(C5(c6ccccc6)CC5)no4)CC3)cc2O1` [Cmpd128, 5-(4-((2,2-Difluorobenzo[d][1,3]dioxol-5-yl)methyl)piperazin-1-yl)-3-(1-phenylcyclopropyl)-1,2,4-oxadiazole] it is 617 nM.
As to `Clc1ccccc1CN1CCN(c2nc(-c3ccccc3)no2)CC1` [Cmpd001, 5-(4-(2-Chlorobenzyl)piperazin-1-yl)-3-phenyl-1,2,4-oxadiazole], the EC50 came to 27 nM.
The result for `CC(C)CCN1CCN(c2nc(-c3ccccc3)no2)CC1` [Cmpd006, 5-(4-Isopentylpiperazin-1-yl)-3-phenyl-1,2,4-oxadiazole] reads 8 nM; that for `COc1cccc(CCN2CCN(c3nc(Cc4cccc(Cl)c4)no3)CC2)c1` [Cmpd076, 1-[3-(3-Chloro-benzyl)-[1,2,4]oxadiazol-5-yl]-4-[2-(3-methoxy-phenyl)-ethyl]-piperazine], 6 nM.
The result for `COc1cc(CCN2CCN(c3nc(C4C[C@@H]5CC[C@H]4C5)no3)CC2)ccn1` (stereo partly drawn) [Cmpd187, 3-((1S,4R)-bicyclo[2.2.1]heptan-2-yl)-5-(4-(2-(2-methoxypyridin-4-yl)ethyl)piperazin-1-yl)-1,2,4-oxadiazole] reads 47 nM; that for `COc1ccc(CCN2CCN(c3nc(Cc4ccc(Cl)cc4)no3)CC2)cn1` [Cmpd060, 1-[3-(4-Chloro-benzyl)-[1,2,4]oxadiazol-5-yl]-4-[2-(6-methoxy-pyridin-3-yl)-ethyl]-piperazine], 74 nM; that for `CC(C)CCN1CCN(c2nc(C3C[C@@H]4CC[C@H]3C4)no2)CC1` (stereo partly drawn) [Cmpd189, 3-((1S,4R)-bicyclo[2.2.1]heptan-2-yl)-5-(4-isopentylpiperazin-1-yl)-1,2,4-oxadiazole], 3 nM.
The figure for `FC(F)(F)c1ccc(-c2noc(N3CCN(CCc4ccc(Cl)cc4)CC3)n2)cc1` [Cmpd183, 1-[2-(4-Chloro-phenyl)-ethyl]-4-[3-(4-trifluoromethyl-phenyl)-[1,2,4]oxadiazol-5-yl]-piperazine] is 57 nM; for `Clc1ccc(Cc2noc(N3CCN(Cc4ccc5c(c4)OCO5)CC3)n2)cc1` [Cmpd055, 1-Benzo[1,3]dioxol-5-ylmethyl-4-[3-(4-chloro-benzyl)-[1,2,4]oxadiazol-5-yl]-piperazine] it is 452 nM; for `c1ccc(-c2noc(N3CCN(CCN4CCOCC4)CC3)n2)cc1` [Cmpd005, 4-(2-(4-(3-Pphenyl-1,2,4-oxadiazol-5-yl)piperazin-1-yl)ethyl)morpholine] it is 41 nM.
The molecule `Cc1ccccc1CN1CCN(c2nc(C3(c4ccc(F)cc4)CC3)no2)CC1` [Cmpd108, 3-(1-(4-Fluorophenyl)cyclopropyl)-5-(4-(2-methylbenzyl)piperazin-1-yl)-1,2,4-oxadiazole] came in with an EC50 of 758 nM.
Take `Cc1ccc(CN2CCN(c3nc(-c4cccc(F)c4)no3)CC2)cc1` [Cmpd030, 3-(3-Fluorophenyl)-5-(4-(4-methylbenzyl)piperazin-1-yl)-1,2,4-oxadiazole]: a half-maximal response (EC50) required 13 nM.
The figure for `CCCN1CCN(c2nc(Cc3ccc(Cl)cc3)no2)CC1` [Cmpd066, 1-[3-(4-Chloro-benzyl)-[1,2,4]oxadiazol-5-yl]-4-propyl-piperazine] is 145 nM.
The result for `C1CN(CCN2CCN(c3nc(C4C[C@@H]5CC[C@H]4C5)no3)CC2)CCO1` (stereo partly drawn) [Cmpd188, 4-(2-(4-(3-((1S,4R)-bicyclo[2.2.1]heptan-2-yl)-1,2,4-oxadiazol-5-yl)piperazin-1-yl)ethyl)morpholine] reads 4 nM; that for `CC(C)CCN1CCN(c2nc(-c3cccc(F)c3)no2)CC1` [Cmpd034, 3-(3-Fluorophenyl)-5-(4-isopentylpiperazin-1-yl)-1,2,4-oxadiazole], 2 nM; that for `Fc1ccc(-c2noc(N3CCN(Cc4ccccc4Cl)CC3)n2)cc1F` [Cmpd035, 5-(4-(2-Chlorobenzyl)piperazin-1-yl)-3-(3,4-difluorophenyl)-1,2,4-oxadiazole], 24 nM.
In turn, `Cc1ccc(CN2CCN(c3nc(C4C[C@@H]5CC[C@H]4C5)no3)CC2)cc1` (stereo partly drawn) [Cmpd185, 3-((1S,4R)-bicyclo[2.2.1]heptan-2-yl)-5-(4-(4-methylbenzyl)piperazin-1-yl)-1,2,4-oxadiazole] had an EC50 of 71 nM.
`COc1cc(CCN2CCN(c3nc(C4(c5ccccc5)CC4)no3)CC2)ccn1` [Cmpd131, 5-(4-(2-(2-Methoxypyridin-4-yl)ethyl)piperazin-1-yl)-3-(1-phenylcyclopropyl)-1,2,4-oxadiazole] had an EC50 of 135 nM.
As for `Cc1ccccc1CN1CCN(c2nc(-c3ccc(Cl)cc3)no2)CC1` [Cmpd022, 3-(4-Chlorophenyl)-5-(4-(2-methylbenzyl)piperazin-1-yl)-1,2,4-oxadiazole], the EC50 worked out at 35 nM.
Molecule `Fc1cccc(-c2noc(N3CCN(Cc4ccccc4Cl)CC3)n2)c1` [Cmpd029, 5-(4-(2-Chlorobenzyl)piperazin-1-yl)-3-(3-fluorophenyl)-1,2,4-oxadiazole] returned a half-maximal effective concentration (EC50) of 97 nM.
For `CCOCCN1CCN(c2nc(Cc3ccc(Cl)cc3)no2)CC1` [Cmpd065, 1-[3-(4-Chloro-benzyl)-[1,2,4]oxadiazol-5-yl]-4-(2-ethoxy-ethyl)-piperazine], the EC50 turned out to be 763 nM.
In turn, `COc1cc(CCN2CCN(c3nc(-c4ccc(Cl)cc4)no3)CC2)ccn1` [Cmpd023, 3-(4-Chlorophenyl)-5-(4-(2-(2-methoxypyridin-4-yl)ethyl)piperazin-1-yl)-1,2,4-oxadiazole] had an EC50 of 18 nM.
Turning to `Cc1ccccc1CN1CCN(c2nc(-c3cccc(Cl)c3)no2)CC1` [Cmpd026, 3-(3-Chlorophenyl)-5-(4-(2-methylbenzyl)piperazin-1-yl)-1,2,4-oxadiazole], the 50% effective concentration (EC50) was 88 nM.
The molecule `FC(F)(F)CCCN1CCN(c2nc(Cc3ccc(Cl)cc3)no2)CC1` [Cmpd068, 1-[3-(4-Chloro-benzyl)-[1,2,4]oxadiazol-5-yl]-4-(4,4,4-trifluoro-butyl)-piperazine] displayed an EC50 of 151 nM.
